Data on twelve molecules can be found in ChEMBL document CHEMBL1135186, “Novel diphenylalkyl piperazine derivatives with dual calcium antagonistic and antioxidative activities” (Bioorg Med Chem Lett, 2002).

One experiment is filed under the species Rattus norvegicus. As to the kind of experiment: PD2 value was calculated as -log value of the concentration of the test compound to inhibit 60 mM KCl-induced contractions to 50% expressed as calcium antagonistic activity. The experiment is classed as functional.
The species entered for experiment [1] is Canis familiaris. As to the kind of experiment: Concentration of the test compound required to inhibit the auto oxidative lipid peroxidations in canine brain homogenates by 50% was determined. The experiment is classed as functional. The note with it: Canis lupus familiaris.
The species entered for experiment [2] is Canis familiaris. Nature of the experiment: Inhibitory activity against KCl induced contractile response in isolated canine mesenteric artery was determined expressed as vasodilation effect. The class given is functional, Canis lupus familiaris.
The species entered for experiment [3] is Canis familiaris. As to the kind of experiment: Inhibitory activity against KCl induced contractile response in isolated canine basilar artery was determined expressed as vasodilation effect. The class given is functional, Canis lupus familiaris.
The species named for experiment [4] is Canis familiaris. As to the kind of experiment: Inhibitory activity against KCl induced contractile response in isolated canine renal artery was determined expressed as vasodilation effect. The class given is functional, Canis lupus familiaris.
For experiment [5], the species on record is Canis familiaris. Nature of the experiment: Inhibitory activity against KCl induced contractile response in isolated canine coronary artery was determined expressed as vasodilation effect. The experiment is classed as functional, Canis lupus familiaris.

With `OC(CNCc1ccccc1)CN1CCN(CCCC(c2ccc(F)cc2)c2ccc(F)cc2)CC1` (centres undefined), the PD2 in the experiment filed under Rattus norvegicus was 5.85. In the experiment filed under Canis familiaris [1], this molecule yielded an IC50 of 6.9 µM.

Consider `COC(CSc1ccccc1)CN1CCN(CCCC(c2ccc(F)cc2)c2ccc(F)cc2)CC1` (centres undefined), for which the PD2 in the experiment filed under Rattus norvegicus is 6.69. Moreover, in the experiment filed under Canis familiaris [1], the IC50 is 20 µM.

For the molecule `CN(CC(O)CN1CCN(CCCC(c2ccc(F)cc2)c2ccc(F)cc2)CC1)c1ccccc1` (centres undefined), the PD2 in the experiment filed under Rattus norvegicus was 5.83. In the experiment listed under Canis familiaris [1], inhibition was half-maximal at 19 µM (IC50).

With `CC(=O)N(CC(O)CN1CCN(CCCC(c2ccc(F)cc2)c2ccc(F)cc2)CC1)c1ccccc1` (centres undefined), the PD2 in the experiment filed under Rattus norvegicus is 5.98. The IC50 in the experiment filed under Canis familiaris [1] was found to be 390 µM.

`Cc1c(C)c2c(c(C)c1O)CC[C@@](C)(CCC[C@H](C)CCC[C@H](C)CCCC(C)C)O2` [ALPHA-TOCOPHEROL] returned an IC50 in the experiment filed under Canis familiaris [1] of 1.5 µM.

As for `Fc1ccc(C(c2ccc(F)cc2)N2CCN(C/C=C/c3ccccc3)CC2)cc1` [FLUNARIZINE], the PD2 in the experiment listed under Rattus norvegicus is given as 5.98.

Regarding `OC(CSCc1ccccc1)CN1CCN(CCCC(c2ccc(F)cc2)c2ccc(F)cc2)CC1` (centres undefined), the PD2 in the experiment filed under Rattus norvegicus is given as 6.93. Also, the IC50 in the experiment listed under Canis familiaris [1] was 28 µM.

`CC(=O)OC(CNc1ccccc1)CN1CCN(CCCC(c2ccc(F)cc2)c2ccc(F)cc2)CC1` (centres undefined): the PD2 in the experiment listed under Rattus norvegicus is 6.38. In the experiment filed under Canis familiaris [1], this molecule came in with an IC50 of 13 µM.

With `OC(CNc1ccccc1)CN1CCN(CCCC(c2ccc(F)cc2)c2ccc(F)cc2)CC1` (centres undefined), the PD2 in the experiment listed under Canis familiaris [2] is listed as 6.1; in the experiment filed under Rattus norvegicus, 6.7; in the experiment filed under Canis familiaris [3], 6.76; in the experiment listed under Canis familiaris [4], 6.27; in the experiment listed under Canis familiaris [5], 6.32. The molecule further returned an IC50 in the experiment listed under Canis familiaris [1] of 6.5 µM.

On to `OC(CSc1ccccc1)CN1CCN(CCCC(c2ccc(F)cc2)c2ccc(F)cc2)CC1` (centres undefined), for which the PD2 in the experiment listed under Canis familiaris [2] is 5.8; in the experiment listed under Rattus norvegicus it was 6.79; in the experiment filed under Canis familiaris [3], 7; in the experiment listed under Canis familiaris [4], 5.73; in the experiment listed under Canis familiaris [5] it was 6.38. The molecule also gave an IC50 in the experiment listed under Canis familiaris [1] of 15 µM.

`CC(=O)OC(CSc1ccccc1)CN1CCN(CCCC(c2ccc(F)cc2)c2ccc(F)cc2)CC1` (centres undefined): in the experiment listed under Rattus norvegicus, the PD2 is 6.55. In the experiment listed under Canis familiaris [1], the midpoint of inhibition, the IC50, lay at 20 µM.

`COC(CNc1ccccc1)CN1CCN(CCCC(c2ccc(F)cc2)c2ccc(F)cc2)CC1` (centres undefined) gave an IC50 in the experiment listed under Canis familiaris [1] of 15 µM. This counts as double-digit micromolar.
